{"source": "patent EP4501112A1", "about": "“PLANT DEFENSE ELICITORS” (Globachem NV, priority 2023, dated 2025)", "type_in_all_cases": "in vivo", "key": {"[1]": {"system": "Puccinia triticina (PUCCTR)", "experiment": "Greenhouse trial, seed treatment against PUCCTR in wheat", "from_the_text": "[table] Table 9. Efficacy assessment of pelargonic acid as seed treatment of PUCCTR in wheat (variety Benchmark)"}, "[2]": {"system": "Root knot nematode (Meloidogyne graminicola)", "experiment": "Root knot nematode gall development on wheat roots after treatment", "conditions": "foliar spraying, stock solution 200 x diluted; 400 J2 per plant 24 hours after treatment; 14 days after inoculation", "experimental": "DISEASE/PEST: Root knot nematode (Meloidogyne graminicola) CROP: Triticum aestivum APPLICATION: Foliar application EXPERIMENT/TRIAL PROTOCOL: After seed germination, wheat plants were grown individually for 2 weeks in a PVC tube (18 cm height, 3 cm diameter) filled with a substrate of sand and a water-absorbing polymer (DCM Aquaperla). Plants were grown at 24 °C and supplied with Hoagland solution and water 3 times per week. They were treated after 2 weeks. Twenty-four hours after treatment they were inoculated with 400 nematode juveniles (second stage; J2) per plant. 8 individual plants were analyzed per treatment. Evaluation of nematode infection was done 14 days after inoculation. Development of galls on the roots was microscopically observed and counted. No females were observed yet at this early time point, in any of the treatments. The number of galls was reduced in the […], pelargonic acid ([…] decanoic acid (pm4) treated plants. Azelaic acid (pm3) had no effect on gall numbers in the used concentration. FORMULATION USED: […] PM1 is already formulated."}, "Cacopsylly pyri": {"system": "Cacopsylly pyri", "experiment": "Field trial, foliar spray against C. pyri on pear trees", "conditions": "650 g/ha", "from_the_text": "DISEASE/PEST: Cacopsylly pyri CROP: Pear trees (pyrus communis spp. Williams) APPLICATION: Foliar spray (spring - when 50% of eggs are yellow) EXPERIMENT/TRIAL PROTOCOL: Foliar spray was applied in the field with a motorized sprayer (OleomacSP126) in spring when the insects appeared on the crop (BBCH 72-75). The trial design consisted of a randomized complete block with 4 replications per treatment. The treated area per plot was 24m^2. Used water volume was […]/ha. Evaluation was done by counting nymphs per 10 shoots. […] This is due to the effect on the plant's immune system. […] Table 6. Efficacy assessment: % efficacy versus untreated (%UNCK) of C. pyri on P. communis (field)"}, "S. avenae": {"system": "S. avenae", "experiment": "Aphid survival and sucking on untreated leaves after treating one leaf of Chinese cabbage", "set-up": "key to S. avenae sucking: 0=no damage or no sucking observed; 1=some damage or some sucking observed; 3=half leaf eaten or half of aphids sucking the leaf; 5=no leaf left or all insects sucking and reproducing", "conditions": "for S. avenae sucking: scale 0 - 5"}, "Fusarium culmorum": {"system": "Fusarium culmorum", "experiment": "whole plant or invertebrate", "conditions": "Fusarium culmorum, in Triticum aestivum, 144 h, read-out: % Efficacy"}, "[3]": {"conditions": "seed treatment 3.8 g ai/ton, 11 dai"}, "[4]": {"conditions": "seed treatment 7.6 g ai/ton, 11 dai"}, "[5]": {"conditions": "seed treatment 38 g ai/ton, 11 dai"}, "[6]": {"conditions": "seed treatment 76 g ai/ton, 21 dai"}}, "data": [{"smiles": "CCCCCCCCC(=O)O", "note": "[Pelargonic acid, pelargonic acid]", "values": [{"measurement": "EFFICACY % ALL LEAVES", "setting": "[1]; [3]", "value": 17.3, "unit": "%"}, {"measurement": "EFFICACY % LEAF 1", "setting": "[1]; [3]", "value": 0.0, "unit": "%"}, {"measurement": "EFFICACY % LEAF 2", "setting": "[1]; [3]", "value": 14.3, "unit": "%"}, {"measurement": "EFFICACY % LEAF 3", "setting": "[1]; [3]", "value": 17.6, "unit": "%"}, {"measurement": "EFFICACY % LEAF 4", "setting": "[1]; [3]", "value": 20.0, "unit": "%"}, {"measurement": "EFFICACY % ALL LEAVES", "setting": "[1]; [4]", "value": 29.6, "unit": "%"}, {"measurement": "EFFICACY % LEAF 1", "setting": "[1]; [4]", "value": 0.0, "unit": "%"}, {"measurement": "EFFICACY % LEAF 2", "setting": "[1]; [4]", "value": 7.1, "unit": "%"}, {"measurement": "EFFICACY % LEAF 3", "setting": "[1]; [4]", "value": 11.8, "unit": "%"}, {"measurement": "EFFICACY % LEAF 4", "setting": "[1]; [4]", "value": 70.0, "unit": "%"}, {"measurement": "EFFICACY % ALL LEAVES", "setting": "[1]; [5]", "value": 6.3, "unit": "%"}, {"measurement": "EFFICACY % LEAF 1", "setting": "[1]; [5]", "value": 0.0, "unit": "%"}, {"measurement": "EFFICACY % LEAF 2", "setting": "[1]; [5]", "value": 7.1, "unit": "%"}, {"measurement": "EFFICACY % LEAF 3", "setting": "[1]; [5]", "value": 11.8, "unit": "%"}, {"measurement": "EFFICACY % LEAF 4", "setting": "[1]; [5]", "value": 0.0, "unit": "%"}, {"measurement": "EFFICACY % ALL LEAVES", "setting": "[1]; [6]", "value": 19.2, "unit": "%"}, {"measurement": "EFFICACY % LEAF 1", "setting": "[1]; [6]", "value": 31.8, "unit": "%"}, {"measurement": "EFFICACY % LEAF 2", "setting": "[1]; [6]", "value": 18.9, "unit": "%"}, {"measurement": "EFFICACY % LEAF 3", "setting": "[1]; [6]", "value": 12.0, "unit": "%"}, {"measurement": "EFFICACY % LEAF 4", "setting": "[1]; [6]", "value": 14.0, "unit": "%"}, {"measurement": "number of galls", "setting": "[2]", "value": "reduced"}, {"measurement": "% efficacy versus untreated (%UNCK) of C. pyri on P. communis (field)", "setting": "Cacopsylly pyri; 14 DAA", "value": 56.4, "unit": "b %"}, {"measurement": "% efficacy versus untreated (%UNCK) of C. pyri on P. communis (field)", "setting": "Cacopsylly pyri; 21 DAA", "value": 63.1, "unit": "b %"}, {"measurement": "% efficacy versus untreated (%UNCK) of C. pyri on P. communis (field)", "setting": "Cacopsylly pyri; 28 DAA", "value": 100, "unit": "b %"}, {"measurement": "% efficacy versus untreated (%UNCK) of C. pyri on P. communis (field)", "setting": "Cacopsylly pyri; 800L/ha water, 3 DAA", "value": 83.8, "unit": "b %"}, {"measurement": "S. avenae sucking", "setting": "S. avenae; 0.78 mg on one leaf, insects added 1h after treatment, 6 DAT", "value": 4}, {"measurement": "S. avenae sucking", "setting": "S. avenae; 0.78 mg on one leaf, insects added 1h after treatment, 24h AT", "value": 0}, {"measurement": "S. avenae sucking", "setting": "S. avenae; 0.78 mg on one leaf, insects added 24 h after treatment, 6 DAT", "value": 1}, {"measurement": "S. avenae sucking", "setting": "S. avenae; 0.78 mg on one leaf, insects added 24 h after treatment, 24h AT", "value": 4}, {"measurement": "S. avenae survival", "setting": "S. avenae; 0.78 mg on one leaf, insects on non-treated leaves, added 24 h after treatment, 6 DAT", "value": "Very small colony"}, {"measurement": "number of S. avenae individuals and sucking", "setting": "S. avenae; 0.78mg, insects introduced 24h after treatment to an untreated leaf of the same plant", "value": "reduction"}, {"measurement": "Emax", "setting": "Fusarium culmorum", "value": 100, "unit": "%"}]}]}
